{"source": "ChEMBL document CHEMBL2331400", "about": "“Structure-based design and evaluation of naphthalene diimide G-quadruplex ligands as telomere targeting agents in pancreatic cancer cells” (J Med Chem, 2013)", "key": {"MIA PaCa-2 [1]": {"test_system": "MIA PaCa-2", "assay": "Induction of ATM/[…] gene expression in human MIAPaCa2 cells by qPCR analysis", "type": "functional, cell-based"}, "MIA PaCa-2 [2]": {"test_system": "MIA PaCa-2", "assay": "Induction of gamma-H2AX gene expression in human MIAPaCa2 cells by qPCR analysis", "type": "functional, cell-based"}, "MIA PaCa-2 [3]": {"test_system": "MIA PaCa-2", "assay": "Upregulation of NTHL1 gene expression in human MIAPaCa2 cells at sublethal concentration after 24 hrs by qPCR analysis", "type": "functional, cell-based"}, "MIA PaCa-2 [4]": {"test_system": "MIA PaCa-2", "assay": "Downregulation of PARP1 gene expression in human MIAPaCa2 cells at 20 to 160 nM after 24 hrs by qPCR analysis relative to solvent-treated control", "type": "functional, cell-based"}, "MIA PaCa-2 [5]": {"test_system": "MIA PaCa-2", "assay": "Downregulation of BAX gene expression in human MIAPaCa2 cells at 20 to 160 nM after 24 hrs by qPCR analysis relative to solvent-treated control", "type": "functional, cell-based"}, "MIA PaCa-2 [6]": {"test_system": "MIA PaCa-2", "assay": "Downregulation of POT1 gene expression in human MIAPaCa2 cells at 20 to 80 nM after 24 hrs by qPCR analysis relative to solvent-treated control", "type": "functional, cell-based"}, "MIA PaCa-2 [7]": {"test_system": "MIA PaCa-2", "assay": "Downregulation of RASSF1 gene expression in human MIAPaCa2 cells at 20 to 80 nM after 24 hrs by qPCR analysis relative to solvent-treated control", "type": "functional"}, "MIA PaCa-2 [8]": {"test_system": "MIA PaCa-2", "assay": "Upregulation of PRKCB gene expression in human MIAPaCa2 cells at 20 to 80 nM after 24 hrs by qPCR analysis relative to solvent-treated control", "type": "functional"}, "MIA PaCa-2 [9]": {"test_system": "MIA PaCa-2", "assay": "Cytotoxicity against human MIAPaCa2 cells assessed as growth inhibition at 5 to 40 nM up to 96 hrs by microscopic analysis", "type": "functional, cell-based"}, "MIA PaCa-2 [10]": {"test_system": "MIA PaCa-2", "assay": "Cytotoxicity against human MIAPaCa2 cells assessed as growth inhibition at 5 to 40 nM after 144 hrs by microscopic analysis", "type": "functional, cell-based"}, "unidentified [11]": {"test_system": "unidentified", "assay": "Stabilization of HSP90a promoter sequence 5'-FAM-d(GGGCCAAAGGGAAGGGGTGGG)-TAMRA-3' (unknown origin) assessed as melting temperature at 1 uM by FRET assay"}, "unidentified [12]": {"test_system": "unidentified", "assay": "Stabilization of duplex DNA T-loop (unknown origin) 5'-FAM-dTATAGCTATA-HEG-TATAGCTATA-TAMRA-3' assessed as melting temperature at 1 uM by FRET assay"}}, "note": "The source made the active and inactive calls. No cut-off for these calls is given here."}
{"smiles": "CN1CCN(CCCNc2cc3c4c(c(NCCCN5CCN(C)CC5)cc5c4c2C(=O)N(CCCN2CCOCC2)C5=O)C(=O)N(CCCN2CCOCC2)C3=O)CC1", "values": [{"measurement": "Activity", "setting": "MIA PaCa-2 [1]", "value": "inactive"}, {"measurement": "Activity", "setting": "MIA PaCa-2 [2]", "value": "Active"}, {"measurement": "Activity", "setting": "MIA PaCa-2 [3]", "value": "inactive"}, {"measurement": "Activity", "setting": "MIA PaCa-2 [4]", "value": "Active"}, {"measurement": "Activity", "setting": "MIA PaCa-2 [5]", "value": "Active"}, {"measurement": "Activity", "setting": "MIA PaCa-2 [6]", "value": "Active"}, {"measurement": "fold change (FC)", "setting": "MIA PaCa-2 [7]", "value": ">2"}, {"measurement": "fold change (FC)", "setting": "MIA PaCa-2 [8]", "value": ">2"}, {"measurement": "growth inhibition (GI)", "setting": "MIA PaCa-2 [9]", "value": "Active"}, {"measurement": "growth inhibition (GI)", "setting": "MIA PaCa-2 [10]", "value": "inactive"}, {"measurement": "ΔTm", "setting": "unidentified [11]", "value": 33.1, "unit": "°C"}, {"measurement": "ΔTm", "setting": "unidentified [12]", "value": 4.9, "unit": "°C"}]}
